Assay results: patent US5866596A, “3,4-diaryloxazolone derivatives, their methods of preparation and their uses in therapeutics” (Laboratories UPSA, priority 1996, dated 1999)
Read-outs that look alike come from different tables or passages of the source.

Assays:
oedema with carrageenan = assay: Anti-inflammatory activity: test of oedema with carrageenan; format: in vivo; conditions: Rattus norvegicus, 30 mg/kg oral, rats, after 3 hours, n=6 per dose, read-out: Anti-inflammatory activity, % inhibition (volume of the oedema)
Procedure: (§1) The anti-inflammatory activity of the compounds of the Examples has been evaluated according to the method of oedema with carrageenan and the analgesic activity has been evaluated according to the method of arthritis with kaolin.
The anti-inflammatory activity is evaluated in rats by the test of oedema with carrageenan. The product is administered orally at a rate of 2.5 ml/100 g (n=6 animals per dose) 2 hours 30 minutes after a water overload taken orally (2.5 ml/100 g). One hour after administration of the product, the oedema is induced by plantar subcutaneous injection of aqueous 2% carrageenan solution. The percentage inhibition of the volume of the oedema is calculated after 3 hours by measuring the volume of the paw with the aid of a mercury plethysmometer.

[1] = test system: arthritis with kaolin (pain response); assay: Analgesic activity: test of arthritis with kaolin; format: in vivo; conditions: 30 mg/kg oral, rats, 5 hours 30 minutes after administration, n=10 per dose
Procedure: as §1
The analgesic activity is evaluated in rats by the test of arthritis with kaolin. Thirty minutes after intra-articular administration of an aqueous 10% suspension of kaolin, the product is administered orally at a rate of 1 ml/100 g (n=10 animals per dose). The percentage inhibition of the animal's pain response (by rating the way it walks) is calculated 5 hours 30 minutes after administration of the product.

[2] = target: T1, COX-2 (purified enzyme from ewe placenta) (Ovis aries, UniProt P79208); assay: Inhibition of COX-2 enzymatic activity (PGE2 by EIA); format: biochemical; conditions: arachidonic acid 4 μM, mean of 4 determinations; for inhibition at 10 µM: 10^-5 M; for inhibition at 0.1 µM: 10^-7 M
T1 construct: purified enzyme from ewe placenta; from tissue; host or cells: ewe placenta
T1 sequence (P79208 17-603): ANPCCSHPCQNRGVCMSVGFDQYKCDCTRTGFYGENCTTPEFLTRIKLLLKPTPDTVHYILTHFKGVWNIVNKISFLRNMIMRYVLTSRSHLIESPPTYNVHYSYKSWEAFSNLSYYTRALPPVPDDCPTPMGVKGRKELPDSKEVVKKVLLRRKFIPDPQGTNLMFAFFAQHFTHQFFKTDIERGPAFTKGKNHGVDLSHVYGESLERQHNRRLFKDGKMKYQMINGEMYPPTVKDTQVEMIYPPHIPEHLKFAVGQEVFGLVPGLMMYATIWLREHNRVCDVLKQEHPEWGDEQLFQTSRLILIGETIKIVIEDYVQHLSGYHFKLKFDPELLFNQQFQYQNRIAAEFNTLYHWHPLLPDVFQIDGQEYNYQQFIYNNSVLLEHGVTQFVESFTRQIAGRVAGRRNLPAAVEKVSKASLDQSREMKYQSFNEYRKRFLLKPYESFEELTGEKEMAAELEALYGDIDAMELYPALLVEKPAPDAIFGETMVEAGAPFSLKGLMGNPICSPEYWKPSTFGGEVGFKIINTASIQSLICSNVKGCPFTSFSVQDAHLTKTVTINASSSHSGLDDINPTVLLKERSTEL
Procedure: (§2) Arachidonic acid (6 μM for COX-1, 4 μM for COX-2) is added to the reaction medium and incubation is carried out for 5 minutes at 25° C. When incubation has ended, the enzymatic reaction is stopped by the addition of 1N HCl and the PGE2 produced is determined by EIA. The results are expressed as the percentage inhibition of the COX-1 and COX-2 enzymatic activities and correspond to mean (±) standard deviations from the average of 4 determinations.

[3] = target: T2, COX-1 (purified enzyme from ram seminal vesicles) (Ovis aries, UniProt P05979); assay: Inhibition of COX-1 enzymatic activity (PGE2 by EIA); format: biochemical; conditions: arachidonic acid 6 μM, mean of 4 determinations; for inhibition at 10 µM: 10^-5 M; for inhibition at 0.1 µM: 10^-7 M
T2 construct: purified enzyme from ram seminal vesicles; from tissue; host or cells: ram seminal vesicles
T2 sequence (P05979 25-600): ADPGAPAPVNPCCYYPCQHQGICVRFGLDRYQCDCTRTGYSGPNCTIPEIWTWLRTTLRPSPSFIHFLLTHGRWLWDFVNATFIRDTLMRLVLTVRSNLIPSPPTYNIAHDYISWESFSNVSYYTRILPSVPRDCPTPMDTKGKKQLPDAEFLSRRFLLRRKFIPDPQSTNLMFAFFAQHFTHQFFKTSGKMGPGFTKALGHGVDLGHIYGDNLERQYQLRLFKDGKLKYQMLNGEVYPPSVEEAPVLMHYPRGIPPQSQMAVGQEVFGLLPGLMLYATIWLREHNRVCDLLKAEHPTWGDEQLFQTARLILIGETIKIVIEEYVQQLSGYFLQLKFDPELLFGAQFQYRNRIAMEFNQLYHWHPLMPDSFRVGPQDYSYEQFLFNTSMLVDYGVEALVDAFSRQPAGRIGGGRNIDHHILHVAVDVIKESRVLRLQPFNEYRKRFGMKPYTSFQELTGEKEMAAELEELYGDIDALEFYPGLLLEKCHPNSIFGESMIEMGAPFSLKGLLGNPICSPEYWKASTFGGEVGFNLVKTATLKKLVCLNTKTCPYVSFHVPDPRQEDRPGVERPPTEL
Procedure: as §2

[4] = Gastric tolerance (ulcerogenic dose); design: species or system Charles River rats strain CD; conditions: rat, in vivo
Procedure: The gastic tolerance study is carried out in Charles River rats strain CD weighing 110 to 150 g. The animals are placed on a water diet 24 hours before administration of the product or the vehicle alone, via the oral route (1 ml/100 g) (n=6 animals per dose). Six hours after administration,the animals are sacrificed and the stomachs are removed and opened along the greater curvature. The number of haemorrhagic spots and lines per stomach identified macroscopically permits establishing an ulceration index (0: no lesion, 1: 1 to 2 lesions, 2: 3 to 4 lesions, 3: 5 to 8 lesions, 4: 9 to 16 lesions, 5: more than 17 lesions) and estimating the 50% ulcerogenic dose (UD50 =dose expressed in mg/kg inducing 4 to 5 lesions).

Cc1cccc(-n2c(-c3ccc(S(C)(=O)=O)cc3)coc2=O)c1 [Example 18, 3-(3-methylphenyl)-4-(4-methanesulfonylphenyl)-3H-oxazol-2-one]
inhibition in vivo at 30 mg/kg (oedema with carrageenan): 18% | Analgesic activity, % inhibition (pain response) [1]: 0% | inhibition at 10 µM [2]: 92% | inhibition at 0.1 µM [2]: 14% | inhibition at 10 µM [3]: 0% | inhibition at 0.1 µM [3]: 0%

Cc1ccc(-n2c(-c3ccc(S(C)(=O)=O)cc3)coc2=O)cc1 [Example 22, 3-(4-methylphenyl)-4-(4-methanesulfonylphenyl)-3H-oxazol-2-one]
inhibition in vivo at 30 mg/kg (oedema with carrageenan): 42% | inhibition at 10 µM [2]: 88% | inhibition at 0.1 µM [2]: 12%

CS(=O)(=O)c1ccc(-c2coc(=O)n2-c2ccccc2)cc1 [Example 16, 3-phenyl-4-(4-methanesulfonylphenyl)-3H-oxazol-2-one]
inhibition in vivo at 30 mg/kg (oedema with carrageenan): 45% | Analgesic activity, % inhibition (pain response) [1]: 60% | inhibition at 10 µM [2]: 78% | inhibition at 0.1 µM [2]: 16% | inhibition at 10 µM [3]: 0% | inhibition at 0.1 µM [3]: 0%

CS(=O)(=O)c1ccc(-c2coc(=O)n2-c2cccc(F)c2)cc1 [Example 21, 3-(3-fluorophenyl)-4-(4-methanesulfonylphenyl)-3H-oxazol-2-one]
inhibition in vivo at 30 mg/kg (oedema with carrageenan): 55% | inhibition at 10 µM [2]: 76% | inhibition at 0.1 µM [2]: 11% | inhibition at 10 µM [3]: 0% | inhibition at 0.1 µM [3]: 0%

CS(=O)(=O)c1ccc(-c2coc(=O)n2-c2ccc(F)cc2)cc1 [Example 4, 3-(4-fluorophenyl)-4-(4-methanesulfonylphenyl)-3H-oxazol-2-one]
inhibition in vivo at 30 mg/kg (oedema with carrageenan): 53% | Analgesic activity, % inhibition (pain response) [1]: 55% | inhibition at 10 µM [2]: 82.7% | inhibition at 0.1 µM [2]: 12% | TD50 at 6 h ([4]; po): > 300 mg/kg | inhibition at 10 µM [3]: 0% | inhibition at 0.1 µM [3]: 0%

CS(=O)(=O)c1ccc(-c2coc(=O)n2-c2ccc(Cl)cc2)cc1 [Example 17, 3-(4-chlorophenyl)-4-(4-methanesulfonylphenyl)-3H-oxazol-2-one]
inhibition in vivo at 30 mg/kg (oedema with carrageenan): 32% | Analgesic activity, % inhibition (pain response) [1]: 42% | inhibition at 10 µM [2]: 85% | inhibition at 0.1 µM [2]: 11% | inhibition at 10 µM [3]: 0% | inhibition at 0.1 µM [3]: 0%

CS(=O)(=O)c1ccc(-c2coc(=O)n2-c2ccc(Cl)c(Cl)c2)cc1 [Example 20, 3-(3,4-dichlorophenyl)-4-(4-methanesulfonylphenyl)-3H-oxazol-2-one]
inhibition in vivo at 30 mg/kg (oedema with carrageenan): 48% | Analgesic activity, % inhibition (pain response) [1]: 75% | inhibition at 10 µM [2]: 94% | inhibition at 0.1 µM [2]: 26% | inhibition at 10 µM [3]: 0% | inhibition at 0.1 µM [3]: 0%

COc1ccc2c(c1)c(CC(=O)O)c(C)n2C(=O)c1ccc(Cl)cc1 [indomethacin, reference compound]
TD50 at 6 h ([4]; rats, oral, 6 hours after administration, dose inducing 4 to 5 lesions, read-out: UD50 (confidence limit), 50% ulcerogenic dose): 8.3 mg/kg

CS(=O)(=O)c1ccc(-c2coc(=O)n2-c2cccc(Cl)c2)cc1 [Example 19, 3-(3-chlorophenyl)-4-(4-methanesulfonylphenyl)-3H-oxazol-2-one]
inhibition in vivo at 30 mg/kg (oedema with carrageenan): 37% | Analgesic activity, % inhibition (pain response) [1]: 60% | inhibition at 10 µM [2]: 87% | inhibition at 0.1 µM [2]: 18% | inhibition at 10 µM [3]: 0% | inhibition at 0.1 µM [3]: 0%
